Columns and labels:
BVDV NADL virus = test: CPE-based antiviral assay, BVDV NADL in MDBK cells (MTS/PMS); conditions: for EC50: Bovine viral diarrhea virus isolates and strains, MDBK, 72 h; for S.I.: selectivity index, CC50 vs EC50; for fold increase: sheet CSFCII#, potency relative to TO502-2403 (EC50 0.2 µM)
[1] = Cytotoxicity assay, proliferation of exponentially growing MDBK cells (MTS/PMS); type: cell-based, bovine; conditions: bovine
Procedure: Assays were carried out, as described previously.

SMILES	EC50 (BVDV NADL virus) [µM]	S.I. (BVDV NADL virus)	fold increase (BVDV NADL virus)	CC50 at 5 days [1] [µM]
Cc1cccc2sc(NC(=O)c3cc(-c4ccc(Cl)s4)nc4ccccc34)nc12 [CSFC-48, Clc1ccc(s1)c3nc2ccccc2c(c3)C(=O)Nc4nc5c(C)cccc5s4]	14	1	0.0143	14 ± 0.7
Cc1ccc(-c2cc(C(=O)Nc3nc4c(C)cccc4s3)c3ccccc3n2)o1 [CSFC-49, Cc1ccc(o1)c3nc2ccccc2c(c3)C(=O)Nc4nc5c(C)cccc5s4]	0.7	143	0.29	> 100
Cc1csc(-c2cc(C(=O)Nc3nc4c(C)cccc4s3)c3ccccc3n2)c1 [CSFC-50, Cc1cc(sc1)c3nc2ccccc2c(c3)C(=O)Nc4nc5c(C)cccc5s4]	1.9	53	0.11	> 100
Cc1ccc(-c2cc(C(=O)Nc3ccn(-c4ccccc4)n3)c3ccccc3n2)o1 [CSFC-51, Cc1ccc(o1)c3nc2ccccc2c(c3)C(=O)Nc4ccn(n4)c5ccccc5]	15.2	7	0.0132	> 100
Cc1csc(-c2cc(C(=O)Nc3ccn(-c4ccccc4)n3)c3ccccc3n2)c1 [CSFC-52, Cc1cc(sc1)c3nc2ccccc2c(c3)C(=O)Nc4ccn(n4)c5ccccc5]	1.2	83	0.17	> 100
O=C(Nc1ccn(-c2ccccc2)n1)c1cc(-c2ccc(Cl)s2)nc2ccccc12 [CSFC-53, Clc1ccc(s1)c3nc2ccccc2c(c3)C(=O)Nc4ccn(n4)c5ccccc5]	77.5	1	0.00258	> 100
O=C(Nc1nc2cc(F)ccc2s1)c1cc(-c2ccco2)nc2ccccc12 [CSFC-54, Fc1cc2nc(sc2cc1)NC(=O)c4cc(nc3ccccc34)c5ccco5]	100	1	0.002	> 100
O=C(Nc1nc2cc(Cl)ccc2s1)c1cc(-c2ccco2)nc2ccccc12 [CSFC-55, Clc1cc2nc(sc2cc1)NC(=O)c4cc(nc3ccccc34)c5ccco5]	100	1	0.002	> 100
CS(=O)(=O)c1ccc2nc(NC(=O)c3cc(-c4ccccc4)nc4ccccc34)sc2c1 [CSFC-56, CS(=O)(=O)c1ccc2nc(sc2c1)NC(=O)c4cc(nc3ccccc34)c5ccccc5]	100	1	0.002	> 100
CCOc1ccc2nc(NC(=O)c3cc(-c4ccco4)nc4ccccc34)sc2c1 [CSFC-57, CCOc1ccc2nc(sc2c1)NC(=O)c4cc(nc3ccccc34)c5ccco5]	0.5	200	0.40	> 100
CCOc1ccc2nc(NC(=O)c3cc(-c4ccccc4)nc4ccccc34)sc2c1 [CSFC-58, CCOc1ccc2nc(sc2c1)NC(=O)c4cc(nc3ccccc34)c5ccccc5]	3.3	30	0.06	> 100
O=C(Nc1nc(-c2ccccc2)cs1)c1cc(-c2ccccc2)nc2ccccc12 [CSFC-60, O=C(Nc1nc(cs1)c2ccccc2)c4cc(nc3ccccc34)c5ccccc5]	0.7	143	0.29	> 100
Cc1ccc2nc(NC(=O)c3cc(-c4ccccc4F)nc4ccccc34)sc2c1 [CSFC-61, Fc1ccccc1c3nc2ccccc2c(c3)C(=O)Nc4nc5ccc(C)cc5s4]	0.2	500	1.00	> 100
Cc1cccc2sc(NC(=O)c3cc(-c4cccc(F)c4)nc4ccccc34)nc12 [CSFC-62, Fc1cccc(c1)c3nc2ccccc2c(c3)C(=O)Nc4nc5c(C)cccc5s4]	25	1	0.008	25 ± 5

— article PMC7144022, “Quinolinecarboxamides Inhibit the Replication of the Bovine Viral Diarrhea Virus by Targeting a Hot Spot for the Inhibition of Pestivirus Replication in the RNA-Dependent RNA Polymerase” (Molecules, 2020)
